# Biological target: Major prion protein
# Test: Half maximal inhibition of Prion protein PrPsc formation was assayed in ScN2a cells
# Format: cell-based
row,SMILES,EC50 [µM]
1,CC(=O)c1ccc2c(c1)N(CCCN(C)C)c1ccccc1S2 [ACEPROMAZINE],5
2,NC(=O)N1c2ccccc2C=Cc2ccccc21 [CARBAMAZEPINE],> 10
3,CCN(CC)CCCC(C)Nc1ccnc2cc(Cl)ccc12 (stereo not drawn) [CHLOROQUINE],4
4,CN(C)CCCN1c2ccccc2Sc2ccc(Cl)cc21 [CHLORPROMAZINE],2
5,O=C(CCCN1CCC(O)(c2ccc(Cl)cc2)CC1)c1ccc(F)cc1 [HALOPERIDOL],> 10
6,c1ccc2nc3ccccc3nc2c1 [PHENAZINE],> 10
7,CN(C)CCCN1c2ccccc2Sc2ccccc21 [PROMAZINE],5
8,CC(CN1c2ccccc2Sc2ccccc21)N(C)C (stereo not drawn) [PROMETHAZINE],8
